Results reported in patent US12145923B2, “Tetrahydroisoquinoline compound, preparation method therefor, pharmaceutical composition containing same, and use thereof” (SHANGHAI INSTITUTE OF MATERIA MEDICA, CHINESE ACADEMY OF …, priority 2018, dated 2024).
“And” between values parts separate entries of the source, which are not always exact repeats. Identical values can stand only once. Like-named read-outs stand apart in the source and are kept apart here.

Legend:
[1] = test system: acute inflammation model of mouse back air sac; test: Acute inflammation model of mouse back air sac (carrageenan); format: in vivo; conditions: oral gavage 5 mg/kg; for inflammatory response: 24 h and 1 h before sensitization
Experimental: On the first day of the experiment, mice were subcutaneously injected with 3 ml of air on the back, and subcutaneously injected with 1.5 ml of air on the back on day 3, and subcutaneously injected with 1 ml of 2% carrageenan (Sigma-Aldrich, St. Louis, MO, USA) on the back on day 6 for sensitization. 4 hours after sensitization, secretion in the air sac was lavaged with phosphate buffer solution. The lavage fluid was used for white blood cell count and inflammatory factor detection. […] Tumor necrosis factor-α and interleukin-6 detection kits were purchased from BD Pharmingen (San Diego, CA, USA).

[2] = test system: RAW 264.7 cells; test: Cytotoxicity on RAW 264.7 cells (CCK-8 method); format: cell-based, mouse
Experimental: (§1) Mouse RAW 264.7 cells were purchased from American Type Culture Collection (Manassas, VA, USA), and cultivated in DMEM culture medium (Hyclone, South Logan, UT, USA) containing 10% fetal bovine serum (Hyclone, South Logan, UT, USA). Cells were collected and counted before use, and inoculated in a 96-well plate (Corning, NY, USA) at 1×10^5/well. […] 20 μl of CCK-8 solution (Dojindo, Kumamoto, Japan) was added at 30 min before the end of the culture. After the cultivation was ended, the absorbance OD value was measured at 450 nm (reference 650 nm) on amicroplate reader (Molecular Devices, Sunnyvale, CA, USA). The toxicity of the compound on RAW 264.7 cells was calculated by dividing the OD value of the test sample by the OD value of the cell control well, which was labeled as the cell survival rate M %.

[3] = Cytotoxicity on RAW 264.7 cells (CCK-8 method); format: cell-based, mouse; conditions: mouse, RAW 264.7 cells; drug concentration required to cause median cytotoxicity, RAW 264.7
Experimental: as §1

[4] = test system: tumor necrosis factor-α secretion in RAW 264.7 cells; test: Inhibition of LPS-stimulated tumor necrosis factor-α secretion in RAW 264.7 cells (ELISA); format: cell-based, mouse; conditions: for IC50 / inhibition at 0.5 µM / inhibition at 5 µM / inhibition at 50 µM: Mus musculus; for IC50: RAW264.7; for inhibition at 0.5 µM / inhibition at 5 µM / inhibition at 50 µM: RAW264.7, 4 h, read-out: Tumor necrosis factor-α inhibition rate/%; for inhibition at 0.5 µM: RAW 264.7, 0.5 μM; for inhibition at 5 µM: RAW 264.7, 5 μM; for inhibition at 50 µM: RAW 264.7, 50 μM
Experimental: After the activation by bacterial lipopolysaccharide (LPS), various inflammatory mediators such as tumor necrosis factor-α will be released; Phosphodiesterase PDE4 is also expressed in macrophages, and the inhibitory activity of the compound on phosphodiesterase PDE4 can be reflected by detecting the secretion of tumor necrosis factor-α.
Under the stimulation of 1 μg/ml LPS (L5886, Sigma, St. Louis, MO, USA), the cells were cultured in a 37° C., 5% CO2 incubator for 4 h. The background control with no stimulant and stimulation control wells were also set, with a total volume of 200 μl. The culture supernatant was collected by centrifugation, and the secretion level of tumor necrosis factor-α in the culture supernatant was detected by enzyme-linked immunosorbent assay. The tumor necrosis factor-α detection kit was purchased from BD Pharmingen (San Diego, CA, USA).

[5] = Beagle dog pharmacokinetic test; format: in vivo
Experimental: Six male healthy beagle dogs weighing 9-11 kg were randomly divided into 2 groups (n=3). The compound (S)-C8 of the present invention was administered by gavage administration and intravenous injection, respectively, and the administration volume was 5 mL/kg and 1 mL/kg, respectively. The gavage administration was formulated with 0.5% CMC-Na+0.25% Tween 80, and intravenous administration was formulated with 5% DMSO/40% PEG400/55% saline.
• gavage administration: 0.25, 0.5, 1.0, 2.0, 4.0, 6.0, 8.0 and 24 h after administration; • intravenous administration: 5 min, 0.25, 0.5, 1.0, 2.0, 4.0, 6.0, 8.0 and 24 h after administration; • 1 ml of venous blood was taken at the above time points from the veins of the extremities, placed in an EDTA-2K anticoagulation tube, and centrifuged at 3500 rpm for 10 minutes. Plasma was separated, and frozen in a −20° C. refrigerator. 3. Sample Testing and Data Analysis
The concentration of compound (S)-C8 in Beagle dog plasma was determined by LC/MS/MS.
The pharmacokinetic parameters after administration were calculated by a non-compartmental model of Phoenix 1.3 software (Pharsight, USA).

[6] = molecular target: Human PDE4D catalytic domain (Homo sapiens (Human), UniProt Q08499); test: Scintillation Proximity Assay (SPA), inhibition of PDE4D catalytic domain activity; format: biochemical; conditions: for inhibition at 1 µM: Compound concentration: 1 μM, read-out: PDE4D enzyme activity inhibition rate %
Experimental: The scintillation Proximity Assay (SPA) method was used to determine the inhibitory effect of compounds on the activity of PDE4D catalytic domain. Human PDE4D catalytic domain protein was obtained by expression and purification in E. coli. […] [^3H]-cAMP, scintillation beads (RPNQO150, Perkin Elmer), and 96-well scintillation microplates (Isoplate-96, Perkin Elmer) were purchased from Perkin Elmer Company.
Finally, 10 μl [^3H]-cAMP (0.005 μCi/μl) was added and incubated for 30 min at 30° C. in a water bath. 50 μl SPA beads was added to quench the reaction, shaked appropriately, and stood for 20 minutes. A microplate scintillation counter was used.

[7] = Rat pharmacokinetic test; format: in vivo; conditions: for Vd: read-out: Vss; for bioavailability: oral, gavage 20 mg/kg vs intravenous 10 mg/kg, dosage standardized, read-out: F (absolute bioavailability)
Experimental: Six male healthy rats weighing 150-200 g were randomly divided into 2 groups (n=3). Compounds 14, 16, 17, 18, 22 and 29 of the present invention were administered by gavage and intravenous injection, respectively, at a administration volume of 10 mL/kg. The drug was formulated with DMSO/Tween 80/saline solution (5:5:90, v/v/v). The rats were fasted for 12 h before testing, water ad lib, and uniformly feeded 2 h after administration.
gavage administration: 0.25, 0.5, 1.0, 2.0, 4.0, 6.0, 8.0 and 24 h after administration:
intravenous administration: 5 min, 0.25, 0.5, 1.0, 2.0, 4.0, 6.0, 8.0 and 24 h after administration;
0.3 mL of venous blood was collected at the above time points via the rat eye vein venous plexus, placed in heparinized test tube, centrifuged at 11000 rpm for 5 min. Plasma was separated and frozed in a −20° C. refrigerator.
The concentration of compounds in rat plasma was determined by LC/MS/MS. The pharmacokinetic parameters after administration were calculated by a non-compartmental model of DAS 3.0 software.

[8] = test system: TNF-α secretion in PBMC; test: Inhibition of LPS-stimulated TNF-α secretion in PBMC (ELISA); format: cell-based; conditions: Homo sapiens, TNF-α secretion in PBMC; for inhibition at 1 µM / inhibition at 10 µM: read-out: Inhibition rate %
Source text: According to the difference in cell density in human blood, PBMC (peripheral blood mononuclear cell, PBMC) was directly separated and purified by gradient centrifugation using lymphocyte separation fluid. The cell type was mononuclear cells in blood, mainly including lymphocytes (T/B), monocytes, macrophages, dendritic cells and other minor cell types, of which lymphocytes account for a large part, which can directly in vitro simulate the blood immune environment.
PBMC cells isolated from human blood were implanted into 96-well plates at 2*10^5/ml; compounds in gradients were added, with at least three replicates for each gradient; After the PBMCs were incubated at 37° C., 5% CO2 for 1 hour, LPS was added (the final concentration was 10 ug/ml) to stimulate PBMC to express TNF-α, and incubated for another 18-20 h at 37° C., 5% C02. The 96-well plate was collected. The background control with no stimulant and stimulation control wells were also set, with a total volume of 200 μl. The culture supernatant was collected by centrifugation, and the expression level of TNF-α in the culture supernatant was detected by ELISA.

[9] = male, plasma, intravenous injection, 3 mg/kg
[10] = male, plasma, po, gavage, 10 mg/kg
[11] = PDE4D, unit given as mM, read-out: IC50
[12] = intravenous injection, 10 mg/kg
[13] = male, plasma, intravenous injection, 10 mg/kg
[14] = male, plasma, iv, 10 mg/kg, intravenous injection, 10 mg/kg, read-out: AUC0-t
[15] = male, plasma, po, 20 mg/kg, gavage, 20 mg/kg, read-out: AUC0-t
[16] = male, plasma, po, gavage, 20 mg/kg

Sequence of Human PDE4D catalytic domain (Q08499 386-715): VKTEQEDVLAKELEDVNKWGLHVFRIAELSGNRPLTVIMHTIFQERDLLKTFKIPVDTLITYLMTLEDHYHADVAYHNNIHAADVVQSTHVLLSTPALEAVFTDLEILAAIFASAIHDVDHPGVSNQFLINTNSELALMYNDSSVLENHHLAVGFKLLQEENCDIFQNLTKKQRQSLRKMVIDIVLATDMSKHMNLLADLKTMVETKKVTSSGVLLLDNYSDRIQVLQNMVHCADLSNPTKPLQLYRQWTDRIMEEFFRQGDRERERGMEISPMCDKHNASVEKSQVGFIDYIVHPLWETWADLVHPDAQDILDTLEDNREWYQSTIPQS

Structure (SMILES): COc1cc2c(cc1OC)[C@H](CCc1c[nH]c3cc(C)ccc13)N(C=O)CC2 [(S)-C5, (S)-6,7-dimethoxy-1-(2-(6-methyl-1H-indol-3-yl)ethyl)-3,4-dihydroisoquinoline-2(1H)-formaldehyde]
- secretion level of interleukin-6 in lavage [1]: reduce
- secretion level of tumor necrosis factor-α in lavage [1]: reduce
- inflammatory response [1]: significantly reduce
- Cell survival rate/% ([2]; RAW 264.7, 0.5 μM): 98%
- Cell survival rate/% ([2]; RAW 264.7, 5 μM): 109.4%
- Cell survival rate/% ([2]; RAW 264.7, 50 μM): 93.4%

Structure (SMILES): CCOc1cc([C@@H](CS(C)(=O)=O)N2C(=O)c3cccc(NC(C)=O)c3C2=O)ccc1OC [Apremilast, reference compound]
- CC50 at 4 h [3]: > 10000 nM
- IC50 ([4]; RAW 264.7): 4200 nM

Structure (SMILES): CCOc1cc2c(cc1OC)CCN(C=O)[C@H]2CCc1c[nH]c2ccc(OC)cc12 [(S)-C8, (S)-7-ethoxy-6-methoxy-1-(2-(5-methoxy-1H-indol-3-yl)ethyl)-3,4-dihydroisoquinoline-2(1H)-formaldehyde]
- number of leukocyte infiltration ([1]; air sac lavage): reduce
- secretion level of interleukin-6 in lavage [1]: reduce
- secretion level of tumor necrosis factor-α in lavage [1]: reduce
- inflammatory response [1]: significantly reduce
- AUC0-t ([5]; gavage, 10 mg/kg): 16601 ng·h/mL
- t1/2 ([5]; gavage, 10 mg/kg): 2.92 h
- AUC0-t ([5]; intravenous injection, 3 mg/kg): 9610 ng·h/mL
- AUC(0-inf) [5, 9]: 9800 ng·h/mL
- MRT [5, 9]: 2.37 h
- half-life [5, 9]: 1.96 h
- AUC0-t ([5]; male, plasma, intravenous injection, 3 mg/kg, read-out: AUC0-t): 9610 ng·h/mL
- Vd ([5]; male, plasma, intravenous injection, 3 mg/kg, read-out: Vss): 0.96 L/kg
- bioavailability ([5]; male, plasma, oral, gavage 10 mg/kg vs intravenous 3 mg/kg, dosage standardized, read-out: F (absolute bioavailability)): 52.3%
- Cmax [5, 10]: 4680 ng/mL
- MRT [5, 10]: 3.61 h
- Tmax [5, 10]: 0.5 h
- half-life [5, 10]: 2.92 h
- AUC0-t ([5]; male, plasma, po, gavage, 10 mg/kg, read-out: AUC0-t): 16600 ng·h/mL
- CC50 at 4 h [3]: > 50000 nM
- Cell survival rate/% ([2]; RAW 264.7, 0.5 μM): 89.2%
- Cell survival rate/% ([2]; RAW 264.7, 5 μM): 96.1%
- Cell survival rate/% ([2]; RAW 264.7, 50 μM): 93.8%
- inhibition at 0.5 µM [4]: -6%
- inhibition at 5 µM [4]: 60.4%
- inhibition at 50 µM [4]: 58.1%
- IC50 ([4]; RAW 264.7): 1900 nM
- inhibitory activity on tumor necrosis factor-α compared with the positive compound Apremilast ([4]; RAW 264.7): comparable or stronger
- inhibition at 1 µM [6]: 95%
- IC50 [6, 11]: 80 nM
- IC50 ([6]; read-out: IC50 value of PDE4 inhibitory activity): < 100 nM
- AUC0-t ([7]; gavage, 20 mg/kg): 491 ng·h/mL
- t1/2 ([7]; gavage, 20 mg/kg): 1.03 h
- AUC0-t [7, 12]: 2640 ng·h/mL
- AUC(0-inf) [7, 13]: 2640 ng·h/mL
- MRT [7, 13]: 0.544 h
- half-life [7, 13]: 0.707 h
- Vd [7, 13]: 2.1 L/kg
- AUC0-t [7, 14]: 2640 ng·h/mL
- bioavailability ([7]; male, plasma): 9.3%
- AUC0-t [7, 15]: 508 ng·h/mL
- AUC(0-inf) [7, 16]: 508 ng·h/mL
- MRT [7, 16]: 2 h
- Tmax [7, 16]: 1.33 h
- half-life [7, 16]: 1.03 h
- inhibition at 1 µM [8]: 79.7%
- inhibition at 10 µM [8]: 86.8%
- IC50 ([8]; read-out: IC50): 26 nM
- IC50 ([8]; read-out: IC50 value): 26 nM

Structure (SMILES): COc1cc2c(cc1OC1CCCC1)C(CCc1c[nH]c3ccccc13)N(C=O)CC2 (centres unmarked) [Compound A2, 1-(2-(1H-indol-3-yl)ethyl)-7-(cyclopentyloxy)-6-metthoxy-3,4-dihydroisoquinoline-2(1H)-formaldehyde]
- Cell survival rate/% ([2]; RAW 264.7, 0.5 μM): 111.6%
- Cell survival rate/% ([2]; RAW 264.7, 5 μM): 113%
- Cell survival rate/% ([2]; RAW 264.7, 50 μM): 55.1%
- inhibition at 0.5 µM [4]: 9.7%
- inhibition at 5 µM [4]: -4.4%
- inhibition at 50 µM [4]: 99.4%
- inhibition at 1 µM [6]: 19.2%
- IC50 [6, 11]: 2990 nM
- inhibition at 10 µM [8]: 43%

Structure (SMILES): CCOc1cc2c(cc1OC)CCN(C=O)[C@H]2CCc1c[nH]c2cc(C)ccc12 [(S)-C7, (S)-7-ethoxy-6-methoxy-1-(2-(6-methyl-1H-indol-3-yl)ethyl)-3,4-dihydroisoquinoline-2(1H)-formaldehyde]
- CC50 at 4 h [3]: > 50000 nM
- Cell survival rate/% ([2]; RAW 264.7, 0.5 μM): 71.3%
- Cell survival rate/% ([2]; RAW 264.7, 5 μM): 93.4%
- Cell survival rate/% ([2]; RAW 264.7, 50 μM): 96.1%
- AUC0-t ([7]; gavage, 20 mg/kg): 9232.3 ng·h/mL
- AUC0-t [7, 12]: 6761.8 ng·h/mL
- AUC(0-inf) [7, 13]: 6760 ng·h/mL
- MRT [7, 13]: 0.9 h
- half-life [7, 13]: 0.2 h
- Vd [7, 13]: 0.53 L/kg
- AUC0-t [7, 14]: 6760 ng·h/mL
- bioavailability ([7]; male, plasma): 68.3%
- Cmax ([7]; male, plasma, po, 20 mg/kg, gavage): 2380 ng/mL
- AUC0-t [7, 15]: 9230 ng·h/mL
- AUC(0-inf) [7, 16]: 9230 ng·h/mL
- MRT [7, 16]: 2.6 h
- Tmax [7, 16]: 1 h
- half-life [7, 16]: 1 h

Structure (SMILES): COCC(=O)N1CCc2cc(OC)c(OC)cc2C1CCc1c[nH]c2ccccc12 (centres unmarked) [Compound B4, 1-(1-(2-(1H-indol-3-yl)ethyl)-6,7-dimethoxy-3,4-dihydroisoquinoline-2(1H)-yl)-2-methoxyethane-1-one]
- Cell survival rate/% ([2]; RAW 264.7, 0.5 μM): 116.6%
- Cell survival rate/% ([2]; RAW 264.7, 5 μM): 82.7%
- Cell survival rate/% ([2]; RAW 264.7, 50 μM): 71.5%
- inhibition at 0.5 µM [4]: -9.2%
- inhibition at 5 µM [4]: -11%
- inhibition at 50 µM [4]: 54.5%
- inhibition at 1 µM [6]: 82.6%
- IC50 [6, 11]: 300 nM
- inhibition at 1 µM [8]: 44.1%
- inhibition at 10 µM [8]: 89.1%
- IC50 ([8]; read-out: IC50): 8020 nM

Structure (SMILES): COc1cc2c(cc1OC)[C@H](CCc1c[nH]c3cc(F)ccc13)N(C=O)CC2 [(S)-C6, (S)-1-(2-(6-fluoro-1H-indol-3-yl)ethyl)-6,7-dimethoxy-3,4-dihydroisoquinoline-2(1H)-formaldehyde]
- CC50 at 4 h [3]: > 50000 nM
- Cell survival rate/% ([2]; RAW 264.7, 0.5 μM): 108.6%
- Cell survival rate/% ([2]; RAW 264.7, 5 μM): 118.4%
- Cell survival rate/% ([2]; RAW 264.7, 50 μM): 93.7%

Structure (SMILES): COc1cc2c(cc1OC)[C@H](CCc1c[nH]c3ccccc13)N(C=O)CC2 [(S)-A1, (S)-1-(2-(1H-indol-3-yl)ethyl)-6,7-dimethoxy-3,4-dihydroisoquinoline-2(1H)-formaldehyde]
- CC50 at 4 h [3]: > 50000 nM
- Cell survival rate/% ([2]; RAW 264.7, 0.5 μM): 112.3% and 103%
- Cell survival rate/% ([2]; RAW 264.7, 5 μM): 126.4% and 100.2%
- Cell survival rate/% ([2]; RAW 264.7, 50 μM): 88.8% and 102%

Structure (SMILES): COc1cc2c(cc1OC)C(CCc1c[nH]c3ccccc13)N(CC1CCOCC1)CC2 (centres unmarked) [Compound B7, 1-(2-(1H-indol-3-yl)ethyl)-6,7-dimethoxy-2-((tetrahydro-2H-pyran-4-yl)methyl)-1,2,3,4-tetrahydroisoquinoline]
- Cell survival rate/% ([2]; RAW 264.7, 0.5 μM): 98.1%
- Cell survival rate/% ([2]; RAW 264.7, 5 μM): 114.1%
- Cell survival rate/% ([2]; RAW 264.7, 50 μM): 122.6%
- inhibition at 0.5 µM [4]: 4.3%
- inhibition at 5 µM [4]: 2.3%
- inhibition at 50 µM [4]: 82.2%
- inhibition at 1 µM [6]: 6.7%
- inhibition at 10 µM [8]: 36.6%
